This passage reports Kd results from paper PMC7108291 (Spectrochimica Acta. Part A, Molecular and Biomolecular …, 2009).

Experiment in all cases: tryptophan fluorescence quenching titration at […] °C
Holding throughout (assay type): binding

The target of one assay is Taq polymerase (Thermus aquaticus, UniProt P19821).
For the next assay, the target named is DNase I (Bos taurus, UniProt P00639).
The target of the next assay is T1, RNase A (Bos taurus, UniProt P61823).
T1 sequence (P61823 27-150): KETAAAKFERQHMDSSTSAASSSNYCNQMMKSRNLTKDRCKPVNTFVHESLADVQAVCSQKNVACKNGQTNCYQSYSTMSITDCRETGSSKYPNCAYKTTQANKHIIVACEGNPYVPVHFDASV

Chain of Taq polymerase (P19821 whole entry): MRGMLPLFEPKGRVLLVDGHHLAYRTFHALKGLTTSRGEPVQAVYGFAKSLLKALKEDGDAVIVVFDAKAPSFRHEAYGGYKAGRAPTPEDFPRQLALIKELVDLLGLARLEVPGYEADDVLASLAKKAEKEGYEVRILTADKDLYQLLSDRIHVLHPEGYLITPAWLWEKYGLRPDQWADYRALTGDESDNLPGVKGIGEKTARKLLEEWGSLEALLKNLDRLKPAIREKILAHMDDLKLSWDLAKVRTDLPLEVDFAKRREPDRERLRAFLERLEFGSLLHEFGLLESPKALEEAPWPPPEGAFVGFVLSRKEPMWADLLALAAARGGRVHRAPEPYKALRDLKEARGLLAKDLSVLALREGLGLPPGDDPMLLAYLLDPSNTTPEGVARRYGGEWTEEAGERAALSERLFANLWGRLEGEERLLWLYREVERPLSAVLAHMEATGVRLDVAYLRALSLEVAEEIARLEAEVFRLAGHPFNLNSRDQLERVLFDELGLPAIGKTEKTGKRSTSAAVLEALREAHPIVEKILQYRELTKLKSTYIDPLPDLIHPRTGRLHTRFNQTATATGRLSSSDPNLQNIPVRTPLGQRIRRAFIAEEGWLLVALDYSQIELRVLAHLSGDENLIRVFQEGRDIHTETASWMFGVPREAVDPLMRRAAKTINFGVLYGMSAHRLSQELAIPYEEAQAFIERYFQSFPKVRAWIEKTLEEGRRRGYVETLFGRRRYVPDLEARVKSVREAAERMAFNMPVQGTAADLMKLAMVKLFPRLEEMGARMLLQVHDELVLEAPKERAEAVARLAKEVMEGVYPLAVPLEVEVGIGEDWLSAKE
Chain of DNase I (P00639 23-282): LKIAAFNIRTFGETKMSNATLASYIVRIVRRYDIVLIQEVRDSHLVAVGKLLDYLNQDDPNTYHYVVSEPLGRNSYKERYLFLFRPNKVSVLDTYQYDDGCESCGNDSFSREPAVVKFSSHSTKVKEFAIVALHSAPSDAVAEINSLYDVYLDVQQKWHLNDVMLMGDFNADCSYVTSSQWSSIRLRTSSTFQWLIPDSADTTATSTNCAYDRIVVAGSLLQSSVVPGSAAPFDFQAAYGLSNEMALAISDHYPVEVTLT

For `O=C(O)C1=CC(=C(c2ccc(O)c(C(=O)O)c2)c2ccc(O)c(C(=O)O)c2)C=CC1=O` [ATA, aurintricarboxylic acid], the figures for the Kd on Taq polymerase, at DNase I and at RNase A were 82 µM, 9.02 µM and 2330 nM, respectively.
